{"source": "patent US20220370553A1", "about": "“PREBIOTIC-INDUCED ANTI-TUMOR IMMUNITY” (Sanford Burnham Prebys Medical Discovery Institute, priority 2019, published 2022)", "key": {"A. muciniphila": {"tested_on": "A. muciniphila", "assay": "Anaerobic fecal cultures with 1% prebiotic, 16S rDNA quantification", "format": "cell-based, human", "settings": "in most of the cultures", "procedure": "(§1) Fecal samples derived from 12 healthy human subjects were cultivated in the presence or absence of 1% prebiotic. 16S rDNA sequences corresponding to Bifidobacterium, Bacteroides and Akkermansia muciniphila were quantified. Data are representative of three independent experiments. Graphs show the mean±s.e.m. *P<0.05, **P<0.005, ***P<0.001, ****P<0.0001 by one-way ANOVA with Tukey's correction.\n(§2) Anaerobic fecal cultures. […] Anaerobic cultures (9% H2, 81% N2) were grown statically for 3-4 days at 37° C. and grown to approximate saturation.\n(§3) Chemically-defined medium (CDM). CDM contains 50 mM HEPES, 2.2 mM KH2PO4, 10 mM Na2HPO4, 60 mM NaHCO3, 4 mM of each amino acid, except leucine (15 mM), 10 mL ATCC, Trace Mineral Supplement. CDM contained nucleoside bases (100 mg/L), inosine, xanthine, adenine, guanine, cytosine, thymidine and uracil (400 mg/L). CDM contained choline (100 mg/L), ascorbic acid (500 mg/L), lipoic acid (2 mg/L), hemin (1.2 mg/L) and myo-inositol (400 mg/L). Resazurin (1 mg/L) was added to visually monitor dissolved oxygen. The pH of the media was adjusted to 7.4.\n(§4) Fecal samples derived from 12 healthy, vegetarian human subjects were cultivated in a chemically-defined medium the presence or absence of 1% prebiotic. Anaerobic cultures (9% H2, 81% N2) were grown statically for 3-4 days at 37° C. and grown to approximate saturation."}, "Bifidobacterium spp.": {"tested_on": "Bifidobacterium spp.", "assay": "Anaerobic fecal cultures with 1% prebiotic, 16S rDNA quantification", "format": "cell-based, human", "settings": "in two of these cultures", "procedure": "as §1, §2, §3, §4"}, "OT-I CD8+ T cells": {"tested_on": "OT-I CD8+ T cells", "assay": "In vivo OT-I T cell assay with B16-OVA melanoma cells", "set-up": "species or system C57BL/6 mice", "settings": "mucin-treated vs control mice", "procedure": "Right dot plots show gating of CD45.1+CD8+ cells (n=6). FIG. 4B Quantification of CD45.1+OT-I CD8+ T cell number in the tumor-draining lymph nodes (TdLN) and non-draining lymph nodes (ndLN) of WT C57BL/6 mice CD45.2+ mice that were injected with B16-OVA melanoma cells (n=10). Graphs show the mean s.e.m. *P<0.05, by two-tailed t-test or Mann-Whitney U test.\nIn vivo OT-I T cell proliferation assay. […] After 24 h, the mice were injected s.c. with 1×10^6 B16-OVA melanoma cells and the mice were left for 7 days. The spleen, tumor-draining lymph nodes, and non-draining lymph nodes were harvested and analyzed by flow cytometry. The proliferation of OT-1 CD8+ T cells was assessed by analysis of CFSE dilution within the population by gating on CD45.1+CD8+ T cells.\nTo assess the activation and homing of tumor-specific T cells in prebiotic-treated mice, an adoptive transfer model was used with OVA-specific OT-I transgenic T cells. OVA-specific OT-I CD8+, CD45.1+ T cells were transferred into untreated or mucin-treated WT mice. Mice were injected with OVA-expressing B16F10 tumor cells, and the frequency of OVA-specific OT-I T cells was monitoring in tumor draining and non-tumor-draining lymph nodes. OT-I CD8+ T cells were more abundant in the tumor-draining lymph nodes of mucin-treated mice, compared with control mice (FIG. 4A-B)."}, "[1]": {"tested_on": "serum cytokines and chemokines", "assay": "Serum cytokine and chemokine detection (LEGENDplex)", "format": "in vivo, mice", "source_text": "Graphs show the mean±s.e.m. *P<0.05, ****P<0.0001 by two-tailed t-test or Mann-Whitney U test.\nSerum cytokine and chemokine detection. Cytokines and chemokines in the sera of naïve or tumor-bearing mice treated with or without mucin were quantified using the LEGENDplex™ mouse inflammation panel and mouse proinflammatory chemokine panel (BioLegend), respectively. All data were collected on an LSRFortessa (BD Biosciences) and analyzed using LEGENDplex™ software (BioLegend).\nLevels of circulating cytokines and chemokines were quantified in mucin-treated mice both before and after tumor inoculation."}, "fecal microbiota": {"tested_on": "fecal microbiota", "assay": "16S rRNA amplicon sequencing of fecal microbiota, YUMM1.5 melanoma model", "format": "in vivo, C57BL/6 mice", "settings": "YUMM1.5 model, TABLE 3", "procedure": "Bacterial DNA extraction and 16S library preparation. […] Mouse fecal pellets were frozen on dry ice, and stored at −80° C. Bacterial DNA was extracted using the QIAmp Fast DNA Stool Mini Kit (Qiagen). To ensure efficient cell lysis, a 5-min bead-beating step using a Mini-Beadbeater-16 was included (Biospec Products, OK, USA). Library preparation for the Illumina MiSeq platform was performed by amplification of the V3-V4 region of the bacterial 16S ribosomal DNA gene using\nC. Adapter and barcode sequences for dual indices were used as described by Illumina. PCR clean up steps were performed with QIAquick 96-PCR Clean up kit (Qiagen, Germany), and library quantification was performed using a KAPA Library Quantification Kit for Illumina platforms (KAPA Biosystems, MA, USA). An Experion Automated Gel Electrophoresis System (Bio-Rad, CA, USA) was used to measure the DNA concentration and purity of the pooled libraries. The 16S libraries were sequenced at Novagene (Beijing, China) and the SBP sequencing Core.\n16S sequencing data processing. […] OSUs mapped to the same strains are grouped together (adding read counts) if percentage similarities are within 3%. Read counts are converted into relative abundance as described in HiMap. […]"}, "[2]": {"tested_on": "N-Ras mutant melanoma tumor cells (MaNRAS1)", "assay": "Growth of N-Ras mutant melanoma tumors with prebiotics with or without MEKi", "format": "in vivo, C57BL/6 mice", "settings": "in the absence of MEKi; mucin 3% in water or inulin 15% in chow", "protocol": "FIG. 7A C57BL/6 mice were injected (s.c.) with NRAS^Q61K mouse melanoma cells (1×10^6) (n=10). The mice were administered with either a control diet alone, or one supplemented with mucin (3%) in drinking water or inulin (15%) in chow starting 14 days prior to tumor inoculation. When tumors reached a volume of 10-20 mm^2, mice were treated with MEKi (PD325901) administered by gavage (10 mg/kg, daily), alone or in combination with inulin or mucin, as indicated. Tumor volume was assessed every 4 days. […] Data are representative of two independent experiments. Graphs show the mean±s.e.m. *P<0.05, **P<0.005, ***P<0.001, ****P<0.0001 by two-way ANOVA with Tukey's correction (A) or one-way ANOVA with Tukey's correction (B-D).\nAnimals and tumor models. […] Male 6-8-week-old mice were used for all experiments. […] All mice were fed an autoclaved chow diet ad libitum (LabDiet 5K67, Purina Foods). […] Mouse selection for experiments was not formally randomized or blinded. For tumor growth experiments, mice were injected subcutaneously (s.c.) with 1×10^6 tumor cells. Tumor size was measured twice a week for calculation of tumor volume. Tumors were weighed at the time of excision.\nMucin and inulin treatment. For mucin treatment, C57BL/6 mice were subjected to control or water supplemented with 3% mucin (Lee Biosolutions) prior to (14 days) and during tumor inoculation. Water was changed every other day. For inulin treatment, mice were received a diet (TD. 94048, AIN-93M, Purified Diet, ENVIGO) enriched with long-chain inulin by substituting all of sucrose and 5% of corn starch in the control diet or a modified diet (TD. 160256, Modified AIN-93M, Diet w 15% inulin, ENVIGO) prior to (14 days) and during tumor inoculation. Diets were changed 2 times a week.\nExperiments were conducted to determine whether prebiotics impacted the effectiveness of MEK inhibitor (MEKi) treatment on tumor growth control and treatment resistance."}, "[3]": {"tested_on": "MC-38 mouse colorectal cancer cells", "assay": "Growth of MC-38 colorectal cancer tumors in prebiotic-fed mice", "format": "in vivo, C57BL/6 mice", "settings": "3% mucin in drinking water or 15% inulin diet from two weeks prior to inoculation", "source_text": "MC-38 mouse colorectal cancer cells (1×10^6) were inoculated, and diets were continued after inoculation."}}, "data": [{"substance": "mucin", "values": [{"measurement": "relative abundance of A. muciniphila", "setting": "A. muciniphila", "result": "increased"}, {"measurement": "Bifidobacterium spp.", "setting": "Bifidobacterium spp.", "result": "not"}, {"measurement": "OT-I CD8+ T cells in tumor-draining lymph nodes", "setting": "OT-I CD8+ T cells", "result": "more abundant"}, {"measurement": "serum levels of IL-6, IL-1a, IL-10, IL-17A and IL-23", "setting": "[1]; following tumor inoculation (10 days), compared with control", "result": "reduced levels"}, {"measurement": "serum levels of IL-1a and CXCL13", "setting": "[1]; mucin feeding for two weeks, prior to tumor inoculation", "result": "Higher levels"}, {"measurement": "serum levels of chemokines CXCL1 and CXCL13", "setting": "[1]; tumor-inoculated mice (10 days), compared with control", "result": "Lower serum levels"}, {"measurement": "taxa enriched", "setting": "fecal microbiota", "result": "predominantly enriched taxa with similarity to members of Clostridium cluster XIVa"}, {"measurement": "control of N-Ras mutant tumors", "setting": "[2]", "result": "not"}, {"measurement": "growth of colon cancer MC-38 tumors", "setting": "[3]", "result": "not"}]}]}
